Data taken from patent publication US11590129B2, “Combination therapy with an antitumor alkaloid” (PHARMA MAR, S.A., priority 2010, dated 2023).
Where two headings read alike, the source gives them in different places.

Tests used:
[1] = tested on: A549 human lung carcinoma cell line; experiment: MTT cytotoxicity assay in A549 cells: IC50 of single agents and combinations with PM01183; assay type: cell-based; conditions: Homo sapiens
Method: (§1) Additional serial dilutions were prepared in serum-free culture medium to achieve a final 4× concentration. Aliquots of 50 μL of each diluted compound were added per well.
A549 was the human lung carcinoma cell line selected for this assay.
(§2) a. […] Briefly, cells were harvested and seeded in 96 well microtiter plates at a density of 5,000 cells in 150 μL of culture medium and incubated for 24 hours in drug-free medium before treatment with vehicle alone or test compounds for 72 h.
(§3) The cytotoxic effect was measured by the MTT reduction assay, in which 3-(4,5-Dimethylthiazol-2-yl)-2,5-diphenyltetrazolium bromide, a tetrazole, which is reduced to purple formazan in the mitochondria of living cells, was used. MTT (50 μL of 1 mg/mL stock solution) was added to the wells and incubated for 8 hours at 37° C. until formazan crystals were formed. After gently removing the culture medium, DMSO was added to dissolve the insoluble purple formazan product into a colored solution. […] Results were expressed as percentage of control cell growth.
(§4) b. In a second set of assays, A549 human tumor cells were incubated with PM01183 in combination with each of the agents mentioned above.
(§5) As a visual aid, response values were plotted on a scatter plot with dose ratios given on the x-axis and % response values on the y-axis. […] In cases where response values at the two endpoints were approximately equivalent, points lying above or below this predicted line of additivity could be interpreted as representing antagonistic or synergistic drug interaction, respectively.

[2] = tested on: HT-29 human colon adenocarcinoma cell line; experiment: cells; conditions: Homo sapiens, HT-29, 72 h
Method: as §2, §3, §4, §5, §1
HT-29 was the human colon adenocarcinoma cell line selected for this assay.

[3] = tested on: HepG2 human hepatocellular liver carcinoma cell line; experiment: MTT cytotoxicity assay in HepG2 cells: IC50 of single agents and combinations with PM01183; assay type: cell-based; conditions: Homo sapiens
Method: as §2, §3, §4, §5, §1
HepG2 was the human hepatocellular liver carcinoma cell line selected for this assay.

[4] = tested on: MDA-MB-231 human breast adenocarcinoma cell line; experiment: cells; conditions: Homo sapiens, MDA-MB-231, 72 h
Method: as §2, §3, §4, §5, §1

[5] = tested on: RXF-393 human kidney carcinoma cell line; experiment: cells; conditions: Homo sapiens, RXF 393, 72 h
Method: as §2, §3, §4, §5, §1

[6] = tested on: HGC-27 human gastric carcinoma cell line; experiment: cells; conditions: Homo sapiens, HGC-27, 72 h
Method: as §2, §3, §4, §5, §1
HGC-27 was the human gastric carcinoma cell line selected for this assay.

[7] = tested on: A673 human rhabdomyosarcoma cell line; experiment: cells; conditions: Homo sapiens, A673, 72 h
Method: as §2, §3, §4, §5, §1
A673 was the human rhabdomyosarcoma cell line selected for this assay.

[8] = tested on: IGROV-1 human ovarian adenocarcinoma cell line; experiment: cells; conditions: Homo sapiens, IGROV-1, 72 h
Method: as §2, §3, §4, §5, §1
IGROV-1 was the human ovarian adenocarcinoma cell line selected for this assay.

[9] = tested on: U87-MG human glioblastoma cell line; experiment: cells; conditions: Homo sapiens, U-87 MG, 72 h
Method: as §2, §3, §4, §5, §1
U87-MG was the human glioblastoma cell line selected for this assay.

[10] = tested on: PC-3 human prostate cancer cell line; experiment: cells; conditions: Homo sapiens, PC-3, 72 h
Method: as §2, §3, §4, §5, §1
PC-3 was the human prostate adenocarcinome cell line selected for this assay.

U87-MG tumors = experiment: Human brain tumor xenografts (U87-MG) in athymic nude mice, tumor volume % T/C; assay type: in vivo
Method: Female athymic nude mice (Harlan Laboratories Models, S.L. (Barcelona, Spain) were utilized for all experiments. Animals were housed in individually ventilated cages, up to ten per cage in a 12-hour light-dark cycle at 21-23° C. and 40-60% humidity. The mice were allowed free access to irradiated standard rodent diet and sterilized water. Animals were acclimated for at least 5 days prior to tumor implantation with a tumor cell suspension.
The tumor model used in these studies was U87-MG cell line, which was obtained from the American Type Culture Collection (ATCC HTB-14™).
U87-MG cells were grown at 37° C. with 5% CO2 in Minimum Essential Medium Eagle (MEME). Each animal was subcutaneously implanted on the right flank, using 26G needle and a 1 cc syringe, with 5×10^6 U87-MG cells, from in vitro passage 5, in 0.05 mL suspension of 50% Matrigel and 50% serum free medium, without antibiotics.
PM01183 was provided in the form of vials of lyophilized PM01183 cake which was reconstituted with water for infusion to a concentration of 0.2 mg/mL. The PM01183 stock solution was further diluted in 5% glucose solution for injection to the dosing formulation concentrations. Temozolomide was provided as a solution prepared by diluting the product in DMSO 10% in 0.9% saline solution for injection to the target final concentration.
In these experiments, PM01183 and temozolomide treatments, as well as placebo, were administered as follows: PM01183, intravenously once per week up to 3 consecutive weeks, on Days 0, 7 and 14, temozolomide orally, in a daily basis during 8 consecutive days (Days 0 to 7), and placebo was administered following the same schedule as those provided for PM01183 and temozolomide. Dose level groups were administered either as single agents or in combination.
Comparison of the median tumor volume in the treatment groups (T) to the median tumor volume in the control group (T/C×100%) was used for evaluation of the antitumor efficacy.

[11] = A549, 72 hours drug exposure, MTT, read-out: IC50
[12] = HepG2, 72 hours drug exposure, MTT, read-out: IC50
[13] = temozolomide 1.5 mg/kg orally daily days 0 to 7
[14] = temozolomide 3 mg/kg orally daily days 0 to 7

O=P1(N(CCCl)CCCl)NCCCO1 (stereo not shown) [Cyclophosphamide, cyclophosphamide]
IC50 ([1]; A549, 72 h): 1000 µM
IC50 [2]: 1000 µM
IC50 ([3]; HepG2, 72 h): 1000 µM
IC50 [4]: 1000 µM
IC50 [5]: 1000 µM
IC50 [6]: 1000 µM
IC50 [7]: 1000 µM
IC50 [8]: 1000 µM

CC(=O)O[C@@]12CO[C@@H]1C[C@H](O)[C@@]1(C)C(=O)[C@H](O)C3=C(C)[C@@H](OC(=O)[C@H](O)[C@@H](NC(=O)OC(C)(C)C)c4ccccc4)C[C@@](O)([C@@H](OC(=O)c4ccccc4)[C@H]21)C3(C)C [Docetaxel, docetaxel]
IC50 [9]: 0.1 µM
IC50 [1, 11]: 0.003 µM
IC50 [2]: 0.00032 µM
IC50 [10]: 0.0186 µM
IC50 [3, 12]: 0.5 µM
IC50 [4]: 0.0025 µM
IC50 [5]: 0.000594 µM
IC50 [7]: 0.00065 µM
IC50 [8]: 0.0501 µM

Cn1nnc2c(C(N)=O)ncn2c1=O [temozolomide]
% T/C on day 0 (U87-MG tumors; Temozolomide 1.0 mg/kg): 98.2%
% T/C on day 2 (U87-MG tumors; Temozolomide 1.0 mg/kg): 100.2%
% T/C on day 4 (U87-MG tumors; Temozolomide 1.0 mg/kg): 65.1%
% T/C on day 7 (U87-MG tumors; Temozolomide 1.0 mg/kg): 81.2%
% T/C on day 9 (U87-MG tumors; Temozolomide 1.0 mg/kg): 55.0%
% T/C on day 11 (U87-MG tumors; Temozolomide 1.0 mg/kg, day 11): 63.5%
% T/C on day 14 (U87-MG tumors; Temozolomide 1.0 mg/kg, day 14): 73.1%
% T/C on day 16 (U87-MG tumors; Temozolomide 1.0 mg/kg, day 16): 75.0%
% T/C on day 0 (U87-MG tumors; Temozolomide 1.5 mg/kg): 94.1%
% T/C on day 2 (U87-MG tumors; Temozolomide 1.5 mg/kg): 96.9%
% T/C on day 4 (U87-MG tumors; Temozolomide 1.5 mg/kg): 75.6%
% T/C on day 7 (U87-MG tumors; Temozolomide 1.5 mg/kg): 73.0%
% T/C on day 9 (U87-MG tumors; Temozolomide 1.5 mg/kg): 56.5%
% T/C on day 11 (U87-MG tumors; Temozolomide 1.5 mg/kg, day 11): 59.3%
% T/C on day 14 (U87-MG tumors; Temozolomide 1.5 mg/kg, day 14): 50.0%
% T/C on day 16 (U87-MG tumors; Temozolomide 1.5 mg/kg, day 16): 53.5%
% T/C on day 0 (U87-MG tumors; Temozolomide 3.0 mg/kg): 97.1%
% T/C on day 2 (U87-MG tumors; Temozolomide 3.0 mg/kg): 95.5%
% T/C on day 4 (U87-MG tumors; Temozolomide 3.0 mg/kg): 67.3%
% T/C on day 7 (U87-MG tumors; Temozolomide 3.0 mg/kg): 39.4%
% T/C on day 9 (U87-MG tumors; Temozolomide 3.0 mg/kg): 25.3%
% T/C on day 11 (U87-MG tumors; Temozolomide 3.0 mg/kg, day 11): 22.9%
% T/C on day 14 (U87-MG tumors; Temozolomide 3.0 mg/kg, day 14): 28.4%
% T/C on day 16 (U87-MG tumors; Temozolomide 3.0 mg/kg, day 16): 31.5%
% T/C on day 11 (U87-MG tumors; [13]): 59.3%
% T/C on day 14 (U87-MG tumors; [13]): 50.0%
% T/C on day 16 (U87-MG tumors; [13]): 53.5%
% T/C on day 11 (U87-MG tumors; [14]): 22.9%
% T/C on day 14 (U87-MG tumors; [14]): 28.4%
% T/C on day 16 (U87-MG tumors; [14]): 31.5%

CC[C@]1(O)C[C@H]2CN(CCc3c([nH]c4ccccc34)[C@@](C(=O)OC)(c3cc4c(cc3OC)N(C=O)[C@H]3[C@@](O)(C(=O)OC)[C@H](OC(C)=O)[C@]5(CC)C=CCN6CC[C@]43[C@@H]65)C2)C1 [Vincristine, vincristine]
IC50 [9]: 0.1 µM
IC50 [1, 11]: 0.25 µM
IC50 [3, 12]: 0.06 µM
IC50 [4]: 0.05 µM
IC50 [5]: 0.0173 µM
IC50 [6]: 0.0125 µM
IC50 [7]: 0.0086 µM
IC50 [8]: 0.379 µM
